ChEMBL document CHEMBL2163236, “7-Oxo-[1,4]oxazino[2,3,4-ij]quinoline-6-carboxamides as selective CB(2) cannabinoid receptor ligands: structural investigations around a novel class of full agonists” (J Med Chem, 2012)

These molecules were tested against Cannabinoid receptor 1 (Homo sapiens, UniProt P21554) (assay: Displacement of [3H]CP-55940 from human recombinant CB1 receptor expressed in CHO cell membranes incubated for 90 mins by scintillation counting).
Cannabinoid receptor 1 (Homo sapiens, UniProt P21554), sequence (P21554 whole entry): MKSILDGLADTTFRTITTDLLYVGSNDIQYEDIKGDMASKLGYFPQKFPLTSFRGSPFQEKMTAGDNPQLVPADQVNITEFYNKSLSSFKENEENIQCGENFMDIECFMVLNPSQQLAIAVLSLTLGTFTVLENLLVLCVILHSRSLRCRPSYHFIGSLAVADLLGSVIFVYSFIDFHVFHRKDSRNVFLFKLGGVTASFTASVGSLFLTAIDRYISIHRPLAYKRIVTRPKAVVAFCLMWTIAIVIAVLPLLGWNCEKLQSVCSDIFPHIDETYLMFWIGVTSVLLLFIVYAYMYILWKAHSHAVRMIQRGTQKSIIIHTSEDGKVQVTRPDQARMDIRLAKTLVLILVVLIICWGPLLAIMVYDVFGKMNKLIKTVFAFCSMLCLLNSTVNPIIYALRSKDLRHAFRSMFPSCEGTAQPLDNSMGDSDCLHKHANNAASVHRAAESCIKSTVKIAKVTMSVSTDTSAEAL

SMILES | Ki [nM]
CCC1COc2c(N3CCCC3)ccc3c(=O)c(C(=O)NC45CC6CC(CC(C6)C4)C5)cn1c23 (racemic) | > 10000
CCC1COc2c(N3CCN(C)CC3)ccc3c(=O)c(C(=O)NC45CC6CC(CC(C6)C4)C5)cn1c23 (racemic) | > 10000
O=C(NC12CC3CC(CC(C3)C1)C2)c1cn2c3c(cccc3c1=O)OCC2c1ccccc1 (racemic) | 265
C[C@@H]1COc2cccc3c(=O)c(C(=O)NC45CC6CC(CC(C6)C4)C5)cn1c23 | > 10000
O=C(NC1CCCCC1)c1cn2c3c(cccc3c1=O)OCC2c1ccccc1 (racemic) | 420
CC(C)[C@@H]1COc2cccc3c(=O)c(C(=O)NC45CC6CC(CC(C6)C4)C5)cn1c23 | 88
CC1COc2cccc3c(=O)c(C(=O)NC45CC6CC(CC(C6)C4)C5)cn1c23 (racemic) | > 10000
O=C(NC1CCCCC1)c1cn2c3c(cccc3c1=O)OCC2C1CC1 (racemic) | 102
C[C@@H]1COc2cccc3c(=O)c(C(=O)NC4CCCCC4)cn1c23 | 2870

The molecules below were run against T1, Cannabinoid receptor 2 (Homo sapiens, UniProt P34972) (assay: Agonist activity at human recombinant CB2 receptor expressed in CHO cell membranes assessed as inhibition of forskolin-induced cAMP accumulation).
Type: functional, cell-based

T1 sequence (P34972 whole entry): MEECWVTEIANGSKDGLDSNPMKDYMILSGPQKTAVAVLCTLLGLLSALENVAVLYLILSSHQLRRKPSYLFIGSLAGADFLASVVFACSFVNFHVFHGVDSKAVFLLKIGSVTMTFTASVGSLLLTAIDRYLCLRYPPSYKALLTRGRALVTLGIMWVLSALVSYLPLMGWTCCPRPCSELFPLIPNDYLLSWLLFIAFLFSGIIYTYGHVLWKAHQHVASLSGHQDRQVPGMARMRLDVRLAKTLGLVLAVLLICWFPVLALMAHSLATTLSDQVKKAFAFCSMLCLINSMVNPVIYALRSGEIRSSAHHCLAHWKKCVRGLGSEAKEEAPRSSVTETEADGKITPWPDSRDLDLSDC

SMILES | IC50 [nM]
CCC1COc2c(N3CCCC3)ccc3c(=O)c(C(=O)NC45CC6CC(CC(C6)C4)C5)cn1c23 (racemic) | 29
CCC1COc2c(N3CCN(C)CC3)ccc3c(=O)c(C(=O)NC45CC6CC(CC(C6)C4)C5)cn1c23 (racemic) | 196
O=C(NC12CC3CC(CC(C3)C1)C2)c1cn2c3c(cccc3c1=O)OCC2c1ccccc1 (racemic) | 26
C[C@@H]1COc2cccc3c(=O)c(C(=O)NC45CC6CC(CC(C6)C4)C5)cn1c23 | 153
O=C(NC1CCCCC1)c1cn2c3c(cccc3c1=O)OCC2c1ccccc1 (racemic) | 15.2
CC(C)[C@@H]1COc2cccc3c(=O)c(C(=O)NC45CC6CC(CC(C6)C4)C5)cn1c23 | 9.84
CC1COc2cccc3c(=O)c(C(=O)NC45CC6CC(CC(C6)C4)C5)cn1c23 (racemic) | 230
O=C(NC1CCCCC1)c1cn2c3c(cccc3c1=O)OCC2C1CC1 (racemic) | 67
C[C@@H]1COc2cccc3c(=O)c(C(=O)NC4CCCCC4)cn1c23 | 90

These molecules were tested against T1, Cannabinoid receptor 2 (assay: Displacement of [3H]CP-55940 from human recombinant CB2 receptor expressed in CHO cell membranes incubated for 60 mins by scintillation counting).

SMILES | Ki [nM]
CCC1COc2c(N3CCCC3)ccc3c(=O)c(C(=O)NC45CC6CC(CC(C6)C4)C5)cn1c23 (racemic) | 8.12
CCC1COc2c(N3CCN(C)CC3)ccc3c(=O)c(C(=O)NC45CC6CC(CC(C6)C4)C5)cn1c23 (racemic) | 42
O=C(NC12CC3CC(CC(C3)C1)C2)c1cn2c3c(cccc3c1=O)OCC2c1ccccc1 (racemic) | 14.2
C[C@@H]1COc2cccc3c(=O)c(C(=O)NC45CC6CC(CC(C6)C4)C5)cn1c23 | 47
O=C(NC1CCCCC1)c1cn2c3c(cccc3c1=O)OCC2c1ccccc1 (racemic) | 2.52
CC(C)[C@@H]1COc2cccc3c(=O)c(C(=O)NC45CC6CC(CC(C6)C4)C5)cn1c23 | 1.24
CC1COc2cccc3c(=O)c(C(=O)NC45CC6CC(CC(C6)C4)C5)cn1c23 (racemic) | 47
O=C(NC1CCCCC1)c1cn2c3c(cccc3c1=O)OCC2C1CC1 (racemic) | 15.3
C[C@@H]1COc2cccc3c(=O)c(C(=O)NC4CCCCC4)cn1c23 | 24

The molecules below were run against T2, Cannabinoid receptor 2 (Rattus norvegicus, UniProt Q9QZN9) (assay: Displacement of [3H]CP-55940 from CB2 receptor in Sprague-Dawley rat spleen by scintillation counting).
T2 sequence (Q9QZN9 whole entry): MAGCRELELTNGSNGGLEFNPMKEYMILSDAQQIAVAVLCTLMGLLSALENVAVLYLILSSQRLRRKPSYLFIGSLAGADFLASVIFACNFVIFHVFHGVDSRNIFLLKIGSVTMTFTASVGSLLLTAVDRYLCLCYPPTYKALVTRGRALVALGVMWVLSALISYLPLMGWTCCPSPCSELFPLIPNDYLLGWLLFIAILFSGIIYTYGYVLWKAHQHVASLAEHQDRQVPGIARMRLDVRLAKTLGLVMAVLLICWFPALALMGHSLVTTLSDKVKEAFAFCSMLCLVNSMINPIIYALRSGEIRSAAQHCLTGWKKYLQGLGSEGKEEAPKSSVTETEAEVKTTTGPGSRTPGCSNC

SMILES | Ki [nM]
CCC1COc2c(N3CCCC3)ccc3c(=O)c(C(=O)NC45CC6CC(CC(C6)C4)C5)cn1c23 (racemic) | 10.5
CCC1COc2c(N3CCN(C)CC3)ccc3c(=O)c(C(=O)NC45CC6CC(CC(C6)C4)C5)cn1c23 (racemic) | 61
O=C(NC12CC3CC(CC(C3)C1)C2)c1cn2c3c(cccc3c1=O)OCC2c1ccccc1 (racemic) | 18.3
C[C@@H]1COc2cccc3c(=O)c(C(=O)NC45CC6CC(CC(C6)C4)C5)cn1c23 | 52
O=C(NC1CCCCC1)c1cn2c3c(cccc3c1=O)OCC2c1ccccc1 (racemic) | 19.3
CC(C)[C@@H]1COc2cccc3c(=O)c(C(=O)NC45CC6CC(CC(C6)C4)C5)cn1c23 | 1.75
CC1COc2cccc3c(=O)c(C(=O)NC45CC6CC(CC(C6)C4)C5)cn1c23 (racemic) | 55
O=C(NC1CCCCC1)c1cn2c3c(cccc3c1=O)OCC2C1CC1 (racemic) | 18.2
C[C@@H]1COc2cccc3c(=O)c(C(=O)NC4CCCCC4)cn1c23 | 30

Organism: Homo sapiens
Test: Selectivity ratio of Ki for human recombinant CB1 receptor to KI for human recombinant CB2 receptor

SMILES | Ratio Ki
CCC1COc2c(N3CCCC3)ccc3c(=O)c(C(=O)NC45CC6CC(CC(C6)C4)C5)cn1c23 (racemic) | > 1230
CCC1COc2c(N3CCN(C)CC3)ccc3c(=O)c(C(=O)NC45CC6CC(CC(C6)C4)C5)cn1c23 (racemic) | > 238
O=C(NC12CC3CC(CC(C3)C1)C2)c1cn2c3c(cccc3c1=O)OCC2c1ccccc1 (racemic) | 19
C[C@@H]1COc2cccc3c(=O)c(C(=O)NC45CC6CC(CC(C6)C4)C5)cn1c23 | > 212
O=C(NC1CCCCC1)c1cn2c3c(cccc3c1=O)OCC2c1ccccc1 (racemic) | 166
CC(C)[C@@H]1COc2cccc3c(=O)c(C(=O)NC45CC6CC(CC(C6)C4)C5)cn1c23 | 71
CC1COc2cccc3c(=O)c(C(=O)NC45CC6CC(CC(C6)C4)C5)cn1c23 (racemic) | > 212
O=C(NC1CCCCC1)c1cn2c3c(cccc3c1=O)OCC2C1CC1 (racemic) | 7
C[C@@H]1COc2cccc3c(=O)c(C(=O)NC4CCCCC4)cn1c23 | 119

Each molecule was assayed against Cannabinoid receptor 1 (Rattus norvegicus, UniProt P20272) (assay: Displacement of [3H]CP-55940 from CB1 receptor in Sprague-Dawley rat brain by scintillation counting).
Cannabinoid receptor 1 (Rattus norvegicus, UniProt P20272), sequence (P20272 whole entry): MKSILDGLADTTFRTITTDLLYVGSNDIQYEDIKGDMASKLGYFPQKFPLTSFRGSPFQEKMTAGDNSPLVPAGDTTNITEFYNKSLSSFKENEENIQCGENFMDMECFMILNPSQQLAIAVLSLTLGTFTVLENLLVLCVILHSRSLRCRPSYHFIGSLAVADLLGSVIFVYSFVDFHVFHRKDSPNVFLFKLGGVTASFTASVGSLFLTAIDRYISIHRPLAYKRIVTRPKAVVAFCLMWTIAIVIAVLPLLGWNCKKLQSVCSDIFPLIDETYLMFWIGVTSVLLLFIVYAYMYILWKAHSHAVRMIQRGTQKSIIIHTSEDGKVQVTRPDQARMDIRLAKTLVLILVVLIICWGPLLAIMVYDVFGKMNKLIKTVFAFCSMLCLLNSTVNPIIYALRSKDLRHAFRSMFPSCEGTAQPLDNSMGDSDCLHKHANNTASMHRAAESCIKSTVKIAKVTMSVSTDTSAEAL

SMILES | Ki [nM]
CCC1COc2c(N3CCCC3)ccc3c(=O)c(C(=O)NC45CC6CC(CC(C6)C4)C5)cn1c23 (racemic) | > 10000
CCC1COc2c(N3CCN(C)CC3)ccc3c(=O)c(C(=O)NC45CC6CC(CC(C6)C4)C5)cn1c23 (racemic) | > 10000
O=C(NC12CC3CC(CC(C3)C1)C2)c1cn2c3c(cccc3c1=O)OCC2c1ccccc1 (racemic) | 670
C[C@@H]1COc2cccc3c(=O)c(C(=O)NC45CC6CC(CC(C6)C4)C5)cn1c23 | > 10000
O=C(NC1CCCCC1)c1cn2c3c(cccc3c1=O)OCC2c1ccccc1 (racemic) | 1150
CC(C)[C@@H]1COc2cccc3c(=O)c(C(=O)NC45CC6CC(CC(C6)C4)C5)cn1c23 | 95
CC1COc2cccc3c(=O)c(C(=O)NC45CC6CC(CC(C6)C4)C5)cn1c23 (racemic) | > 10000
O=C(NC1CCCCC1)c1cn2c3c(cccc3c1=O)OCC2C1CC1 (racemic) | 123
C[C@@H]1COc2cccc3c(=O)c(C(=O)NC4CCCCC4)cn1c23 | 3560
